The compounds below were run on Seeds of Lettuce R. (Super-Jericho) (assay: Filter paper bioassay with lettuce seeds: germination and early plant development, Minimal Effective Concentration (MEC)). Settings: lettuce seeds on filter paper, 0 to 1 mmol/l, visually assessed after 6 days.
Assay type: in vivo
Text: Materials: Seeds of Lettuce R. (Super-Jericho, non-sterilized) were obtained from Ben Shahar Moshe Ltd., 99% purity. The test compounds listed in the Table 2 below were synthetized de novo or purchased from different vendors.
Filter Paper Bioassays with Lettuce seeds: The protocol is following Bertin et al. 2009 and Movellan et al. 2014 with specified modifications as described below.
Seeds were placed on Whatman no. 1 filter paper (Whatman, Middlesex, U.K.) in Petri dishes (10 seeds per plate) with 2.0 ml of aqueous solution of a test material in concentration ranged from 0 (control) to 1 mmol/l were placed in a tray tilted at 45[…]. The trays were kept in dark for 48 hours and then transferred to the growth chamber with 6/18 dark/light cycle for 4 days. Each experiment was performed at least with two repeats.
The development of plants' radicle and shoots were visually assessed 6 days after the beginning of the test to determine Minimal Effective Concentration (MEC) of a test material. In the context of the invention, MEC is defined as the lowest concentration level of a test material that caused deviation (absence of germination or malformation of radicle or shoots) from the plant's development in the Control group.

Compound	Score (activity score of Minimal Effective Concentration, MEC)
N=C(NCCc1cc(Cl)sc1Cl)Nc1ccc(O)cc1 [compound 5766, N-[2-(2,5-dichlorothiophen-3-yl)ethyl]-N′-(4-hydroxyphenyl)guanidine]	Moderate (0.1 mM)
O=C([O-])Cc1cnsn1.[Li+] [compound 5776, lithium(1+) 2-(1,2,5-thiadiazol-3-yl)acetate[Li+]]	Moderate (0.1 mM)
Cc1nsnc1CC(=O)O [compound 5785, (4-methyl-1,2,5-thiadiazol-3-yl)acetic acid]	Moderate (0.1 mM)
CCOC(=O)Cc1csc(Cl)c1 [compound 5796, ethyl(5-chlorothiophen-3-yl)acetate]	Moderate (0.1 mM)
O=C(O)C(F)(F)c1nnn[nH]1 [compound 5799, difluoro(1H-tetrazol-5-yl)acetic acid]	Moderate (0.1 mM)
O=C(Cc1csc(Cl)n1)OCC(=O)c1cccc(Br)n1 [compound 5801, 2-(6-bromopyridin-2-yl)-2-oxoethyl 2-(2-chloro-1,3-thiazol-4-yl)acetate]	Moderate (0.1 mM)
NC(=O)Nc1ccnc(Br)c1 [compound 6602, (2-bromopyridin-4-yl)urea]	Weak (Higher than 0.1 mM)
O=C(O)/C=C/c1cccc(Cl)n1 [compound 6603, (2E)-3-(6-chloropyridin-2-yl)prop-2-enoic acid]	Weak (Higher than 0.1 mM)
O=C(O)/C=C/c1cccnc1Cl [compound 6604, (2E)-3-(2-chloropyridin-3-yl)prop-2-enoic acid]	Moderate (0.1 mM)
O=C(O)/C=C/c1cccnc1Br [compound 6605, (2E)-3-(2-bromopyridin-3-yl)prop-2-enoic acid]	Strong (0.01 mM)
O=C(O)/C=C/c1ccnc(Br)c1 [compound 6606, (2E)-3-(2-bromopyridin-4-yl)prop-2-enoic acid]	Weak (Higher than 0.1 mM)
O=C(Nc1ccnc(Br)c1)c1ccnc(Br)c1 [compound 6607, 2-bromo-N-(2-bromopyridin-4-yl)pyridine-4-carboxamide]	Strong (0.01 mM)
O=C(O)C(=O)c1ccc(Br)nc1 [compound 6609, 2-(6-bromopyridin-3-yl)-2-oxoacetic acid]	Weak (Higher than 0.1 mM)
O=C(O)C(=O)Cc1ccnc(Br)c1 [compound 6611, 3-(2-bromopyridin-4-yl)-2-oxopropanoic acid]	Weak (Higher than 0.1 mM)
O=C(O)C(F)(F)c1ccncc1 [compound 6614, 2,2-difluoro-2-(pyridin-4-yl)acetic acid]	Weak (Higher than 0.1 mM)
O=C(O)Cc1ccc(Oc2ccncc2)cc1 [compound 6615, 2-[4-(pyridin-4-yloxy)phenyl]acetic acid]	Weak (Higher than 0.1 mM)
NC(=O)CC(N)c1ccnc(Br)c1 (centres unmarked) [compound 6616, 3-amino-3-(2-bromopyridin-4-yl)propanamide]	Weak (Higher than 0.1 mM)
O=C(NCC(F)(F)C(=O)O)c1ccnc(Br)c1 [compound 6618, 3-[(2-bromopyridin-4-yl)formamido]-2,2-difluoropropanoic acid]	Strong (0.01 mM)
O=C(O)C(F)(F)c1ncccn1 [compound 6619, 2,2-difluoro-2-(pyrimidin-2-yl)acetic acid]	Weak (Higher than 0.1 mM)
O=C(O)c1ccc2ccnc(Cl)c2c1 [compound 6627, 1-chloroisoquinoline-7-carboxylic acid]	Moderate (0.1 mM)
O=C(O)/C=C/c1ccnc(Br)c1[N+](=O)[O-] [compound 6631, (2E)-3-(2-bromo-3-nitropyridin-4-yl)prop-2-enoic acid]	Moderate (0.1 mM)
Cl.N=C(N)c1cccc(Br)n1 [compound 6634, 6-bromopyridine-2-carboximidamide hydrochloride[HCl]]	Weak (Higher than 0.1 mM)
N=C(N)NCc1cccc(Br)n1 [compound 6636, N-[(6-bromopyridin-2-yl)methyl]guanidine]	Moderate (0.1 mM)
NCCCc1ccnc(Br)c1 [compound 6649, 3-(2-bromopyridin-4-yl)propan-1-amine]	Moderate (0.1 mM)
O=C(O)C(F)(F)c1cccc(-c2ccc(C(F)(F)F)cc2F)n1 [compound 6659, 2,2-difluoro-2-{6-[2-fluoro-4-(trifluoromethyl)phenyl]pyridin-2-yl}acetic acid]	Moderate (0.1 mM)

Compound	Score (activity score of Minimal Effective Concentration, MEC)
O=C(O)C(F)(F)c1nc(F)c(F)cc1F [compound 6660, difluoro(3,5,6-trifluoropyridin-2-yl)acetic acid]	Moderate (0.1 mM)
O=C(O)C(F)c1nc(F)c(F)cc1F (centres unmarked) [compound 6661, 2-fluoro-2-(3,5,6-trifluoropyridin-2-yl)acetic acid]	Moderate (0.1 mM)
NC(Cc1cccc(Br)c1)C(=O)O (centres unmarked) [compound 6669, 2-amino-3-(3-bromophenyl)propanoic acid]	Moderate (0.1 mM)
O=C(O)C(F)(F)c1ccc(F)c(Br)n1 [compound 6681, (6-bromo-5-fluoropyridin-2-yl)(difluoro)acetic acid]	very strong
O=C(O)C(F)(F)c1ccc(C(F)(F)F)c(Br)n1 [compound 6682, [6-bromo-5-(trifluoromethyl)pyridin-2-yl](difluoro)acetic acid]	Strong (0.01 mM)
(2,6-dibromopyridin-4-yl)-2,2-difluoroacetic acid [compound 6632]	Weak (Higher than 0.1 mM)
(2-bromopyridin-4-yl)(oxo)acetic acid [compound 6626]	Moderate (0.1 mM)
(2E)-3-(2-bromo-strong-nitropyridin-4-yl)prop-2-enoic acid [compound 6608]	Moderate (0.1 mM)
(2E)-3-(3-chloro-1H-1,2,4-triazol-5-yl)prop-2-enoic acid [compound 5621]	Weak (Higher than 0.1 mM)
(2E)-3-(5-chlorothiophen-2-yl)prop-2-enoic acid [compound 5607]	Moderate (0.1 mM)
(6-bromopyridin-2-yl)methyl 2-(2-chlorothiophen-3-yl)acetate [compound 5802]	Moderate (0.1 mM)
N-(6-bromopyridin-2-yl)guanidine hydrochloride [compound 6637]	Weak (Higher than 0.1 mM)
N-[2-(2,5-dichlorothiophen-3-yl)ethyl]-N′-(2-hydroxypropyl)guanidine [compound 5727]	Moderate (0.1 mM)
N-{2-[3-(2,5-dichlorothiophen-3-yl)propoxy]phenyl}guanidine [compound 5732]	Moderate (0.1 mM)
N′-[2-(2,5-dichlorothiophen-3-yl)ethyl]-N-(3-hydroxypropyl)guanidine [compound 5725]	Moderate (0.1 mM)
[2,5-bis(trifluoromethyl)-1,3-thiazol-4-yl](difluoro)acetic acid [compound 5744]	Moderate (0.1 mM)
[2-(2,5-dichlorothiophen-3-yl)ethyl]hydrazine [compound 5705]	Moderate (0.1 mM)
[3-(2-bromo-1,3-thiazol-4-yl)propyl]phosphonic acid [compound 5774]	Weak (Higher than 0.1 mM)
[(2,5-dichlorothiophen-3-yl)methyl]hydrazine [compound 5610]	Weak (Higher than 0.1 mM)
[(2-bromo-1,3-thiazol-4-yl)(difluoro)methyl]phosphonic acid [compound 5737]	Weak (Higher than 0.1 mM)
dichloro-1,3-thiazole-4-carboxamide [compound 5616]	Moderate (0.1 mM)
difluoro[4-(trifluoromethyl)-1,3-thiazol-2-yl]acetic acid [compound 5760]	Moderate (0.1 mM)
ethyl 2-(2-amino-5-chloro-1,3-thiazol-4-yl)-2,2-difluoroacetate [compound 5729]	Weak (Higher than 0.1 mM)
ethyl 2-(2-chlorooxazol-4-yl)-2,2-difluoroacetate [compound 5783]	Moderate (0.1 mM)
ethyl difluoro[5-(trifluoromethyl)thiophen-3-yl]acetate [compound 5707]	Weak (Higher than 0.1 mM)
